Assays:
eye = conditions: in vivo
Excerpt: (§1) Thus instead of contributing to or initiating skin cracking and drying the diaminopropanol derivative should promote healing of damaged skin areas whether inflicted mechanically, by weather conditions or as the result of exposure to toxic chemical treatments.

Streptococcus agalactiae [1] = assay: MIC on Mueller-Hinton agar plates, mastitis pathogens; assay type: cell-based; conditions: 18-24 hours at 37° C., less than one colony per plate, duplicate
Description: (§2) The products of this inventions have a broad inhibitory spectrum and high potency. One test system employed seven different mastitis pathogens inoculated onto separate Mueller-Hinton agar plates which contained 1, 5, 10, 20, 40, 80 or 100 mcg./ml. of the cited dihydrochloride final concentration. After incubation for 18-24 hours at 37° C., the minimal inhibitory concentration was determined as that showing less than one colony per plate; all assays were made in duplicate. The MIC's in mcg./ml. observed were: Streptococcus dysgalactiae, 1; Streptococcus uberis, 1; Streptococcus agalactiae, 1; S. aureus, 5; E. coli, 5; Klebsiella sp., 5; and Pseudomonas aeruginosa, 80.

Pseudomonas aeruginosa [2] = assay: as above; assay type: cell-based; conditions: 18-24 hours at 37° C., less than one colony per plate, duplicate
Description: as §2

S. aureus [3] = assay: as above; assay type: cell-based; conditions: Staphylococcus aureus; 18-24 hours at 37° C.; less than one colony per plate; duplicate
Description: as §2

Streptococcus uberis [4] = assay: as above; assay type: cell-based; conditions: 18-24 hours at 37° C., less than one colony per plate, duplicate
Description: as §2

[5] = test system: Streptococcus dysgalactiae; assay: as above; assay type: cell-based; conditions: 18-24 hours at 37° C., less than one colony per plate, duplicate
Description: as §2

Klebsiella sp. [6] = assay: as above; assay type: cell-based; conditions: 18-24 hours at 37° C., less than one colony per plate, duplicate
Description: as §2

E. coli [7] = assay: as above; assay type: cell-based; conditions: Escherichia coli; 18-24 hours at 37° C.; less than one colony per plate; duplicate
Description: as §2

Streptococcus agalactiae [8] = assay: Excised cow's udder teat dip in vitro (modified National Mastitis Council's Protocol A); conditions: 10 min, 0.5% solution
Description: (§3) Additional efficacy studies were made using a laboratory modification of the National Mastitis Council's Protocol A with excised cow's udder in vitro. Prepared teats were dipped to a depth of approximately 15 mm. into a skim milk inoculum containing the test bacteria and then allowed to drain for 5 minutes. Then each teat was dipped into a distilled water solution of the cited dihydrochloride salt using concentrations which ranged from 0.05 up to 1% to a depth of 25 mm. After a period of 10 minutes the removal of any surviving organisms was accomplished by rinsing the teats using 5 ml. of a quenching solution of lecithin (0.05%), tween-80 (0.5%) and sodium thiosulfate (0.5%). The rinse solutions were diluted in sterile saline, plated on an appropriate medium and incubated at 37° C. for 18-20 hours. Colonies were then counted for only those plates with 15-300 colonies, and all dilutions were plated in duplicate. The percent reduction in microorganisms on the teat surfaces was determined using as controls the inoculated teats dipped in sterile distilled water. […] A 0.1% solution caused a 99% reduction for Pseudomonas aeruginosa.

Pseudomonas aeruginosa [9] = assay: as above; conditions: 10 min
Description: as §3

S. aureus [10] = assay: as above; conditions: Staphylococcus aureus, 10 min, 0.5% solution
Description: as §3

Streptococcus uberis [11] = assay: as above; conditions: 10 min, 0.5% solution
Description: as §3

[12] = test system: Streptococcus dysgalactiae; assay: as above; conditions: 10 min, 0.5% solution
Description: as §3

Klebsiella sp. [13] = assay: as above; conditions: 10 min, 0.5% solution
Description: as §3

E. coli [14] = assay: as above; conditions: Escherichia coli, 10 min, 0.5% solution
Description: as §3

[15] = Toxicity and skin irritation, overall; assay type: in vivo
Excerpt: as §1

[16] = test system: intact or abraded dorsal skin of shaved areas (rabbits); assay: Skin irritation, occlusive dressing 24 hours; assay type: in vivo
Excerpt: as §1

[17] = Residues in milk after application to the udder; assay type: in vivo, cow
Excerpt: The sensitivity of the analytical method employed met the stringent criteria set by various governmental agencies.

in vivo = conditions: mouse, mice, oral, 100 mg./ml. in 1% aqueous methylcellulose (100 cps), read-out: acute oral LD50
Excerpt: as §1

[18] = test system: gram negative pathogens such as Pseudomonas species; conditions: background statement; cited from earlier work
[19] = test system: Gram positive, gram negative bacteria, certain yeasts and various fungi; assay: Antimicrobial spectrum: bacteria, yeasts and fungi destroyed or rendered static; assay type: cell-based

CC(C)c1ccc(CCC(CCc2ccc(C(C)C)cc2)NCC(O)CN)cc1.Cl.Cl.O (stereo not shown) [cited dihydrochloride, 1-amino-3-{{3-[4-(1-methylethyl)phenyl]-1-{2-[4-(1-methylethyl)phenyl]ethyl}propyl}amino]-2-propanol dihydrochloride monohydrate]
eye irritation (eye): very slightly irritating
time for eye effects to disappear (eye): ≤ 24 h
MIC (Streptococcus agalactiae [1]): 1 µg/mL
MIC (Pseudomonas aeruginosa [2]): 80 µg/mL
MIC (S. aureus [3]): 5 µg/mL
MIC (Streptococcus uberis [4]): 1 µg/mL
MIC [5]: 1 µg/mL
MIC (Klebsiella sp. [6]): 5 µg/mL
MIC (E. coli [7]): 5 µg/mL
killing at 0.5 % (Streptococcus agalactiae [8]): > 99.8%
killing at 0.1 % (Pseudomonas aeruginosa [9]; 0.1% solution, read-out: reduction): 99%
killing at 0.5 % (Pseudomonas aeruginosa [9]; 0.5% solution): > 99.8%
killing at 0.5 % (S. aureus [10]): 98 to 99.8%
killing at 0.5 % (Streptococcus uberis [11]): > 99.8%
killing at 0.5 % [12]: 98 to 99.8%
killing at 0.5 % (Klebsiella sp. [13]): > 99.8%
killing at 0.5 % (E. coli [14]): > 99.8%
skin irritation, overall ([15]; in vivo): practically non-irritating on skin
toxicity ([15]; overall statement): low toxicity
skin irritation ([16]; 1% solution in distilled water, intact or abraded skin, 24 hours occlusive, observed two weeks): essentially non-irritating
skin irritation ([16]; 5% in distilled water): slightly irritating
signs of skin irritation remaining ([16]; 5% in distilled water, after seven days): no signs remaining after seven days
residues in the milk ([17]; 1% solution applied to the udder, preliminary experiments): no detectable residues
skin penetration ([17]; bovine): appears unable to penetrate the skin
LD50 (in vivo): 1300 mg/kg

[H]/N=C(\N/C(=N/[H])NCCCCCCNC(=N)NC(=N)Nc1ccc(Cl)cc1)Nc1ccc(Cl)cc1 [chlorhexidine]
effectiveness against gram negative pathogens [18]: poorly effective

CC(C)c1ccc(CCC(CCc2ccc(C(C)C)cc2)NCC(O)CN)cc1 (stereo not shown) [Example 1, 1-Amino-3-{{3-[4-(1-methylethyl)phenyl]-1-{2-[4-(1-methylethyl)phenyl]ethyl}propyl}amino]-2-propanol]
concentrations by which many are controlled ([19]; many organisms): one to one-hundred
concentrations by which bacteria, yeasts and fungi are destroyed or rendered static ([19]; overall range): less than one to one-thousand

— US4311709A, “Loweralkyl substituted diphenyl polyamine as an antimicrobial agent” (priority 1979, dated 1982)
